In US12133846B2, “Electrophilic androgen receptor (AR) antagonists for AR downregulation and ferroptosis induction in cancer cells” (priority 2019, dated 2024):
Like-named read-outs stand apart in the source and are kept apart here.

Experiments:
VCaP cells [1] = assay: 3-79 plus BSO, MTT viability, VCaP cells; type: cell-based; conditions: for rescue of 3-79 plus BSO-induced viability loss, VCaP cells: 3-79 10 μM, BSO 100 μM, DFO 100 μM, α-Toc 100 μM, Fer-1 0.5 μM
Protocol: 3-79 and BSO effectively reduce the viability of VCaP cells. […] The viability loss of VCaP cells is rescued by antioxidants and iron chelators. […] Data (n=6-8) represent mean±SD obtained from MTT assay. Statistical significance was assessed by using two-tailed Student's t-tests. ***, P<0.001.

[2] = tested on: AR transcriptional activity in MDA-kb2 cells; assay: cells; type: cell-based; conditions: DHT 1 nM; for suppression of DHT-stimulated luciferase activity: 1-5 μM; for AR inhibition at higher concentrations relative to comparators: 2.5 and 5 μM; for inhibition at 1 µM: MDA-kb2, 1 μM compound, read-out: inhibition of DHT-stimulated luciferase activity
Protocol: MDA-kb2-cell-based ARE luciferase assays were performed to assess the influence of 2-63 and related compounds on AR transcriptional activity. […] Upon androgen stimulation and addition of a luciferase substrate, […], and the intensity is proportional to the extent of AR activation. An agent that either antagonistically competes with DHT for AR binding or reduces the expression of AR diminishes luciferase activity/fluorescence signal in this experimental system. […] 10b (an alcohol) and 11 b (an azide) are synthetic precursors of the ITC hybrid 12b.
Luciferase Assay. […] For all procedures, cells were incubated at CO2 free condition. Steady-Glo® (Promega Corp., Madison, WI) reagent was added to culture media with shaking for 10 min. Samples (100 μL) were transferred to an opaque 96-well white plate, and luminescence was measured using a luminometer.

C4-2 cells [3] = conditions: for potentiation by BSO compared to 2-63, C4-2 cells: drug 2.5 μM, BSO pretreatment 16 h, 24 h
Protocol: (§4) Cell viability was then assessed using an MTT assay.
(§5) PCa cells (6×10^3 cells/well) were seeded into 96-well plates overnight and then treated with indicated compounds at indicated concentrations and time durations. The MTT (3-(4, 5-Dimethylthiazol-2-yl)-2,5-diphenyltetrazolium bromide) assay was performed according to the standard protocol. Briefly, MTT (0.5 mg/mL) was incubated with cells at 37° C. for 3 hours. Supernatant was removed, followed by the addition of dimethyl DMSO (100 μl). After incubation for 30 minutes at 37° C., absorbance was read at 570 nm on a microplate reader.

22Rv1 cells [4] = assay: BSO pretreatment plus drug, MTT viability, 22Rv1 cells; conditions: drug 2.5 μM, BSO pretreatment 16 h, 24 h
Protocol: as §4, §5

VCaP cells [5] = assay: BSO pretreatment plus drug, MTT viability, VCaP cells; conditions: drug 2.5 μM, BSO pretreatment 16 h, 24 h
Protocol: as §4, §5

VCaP cells [6] = assay: MTT viability assay, VCaP cells; type: cell-based; conditions: 72 h, full media, MTT, read-out: IC50, viability of VCaP cells
Description: (§1) Biological Characterization. ITC-ARi hybrid drugs effectively reduce the viability of PCa cells. By using an MTT assay, it was first examined if the newly synthesized hybrid drugs affect the viability of CRPC-relevant PCa cells. PCa VCaP cells naturally express abundant wild type FL AR as well as AR splice variants (e.g., AR-V7). These cells were, therefore, used as one of the cell culture models in this work to investigate the drug-caused viability loss and AR downregulation.

C4-2 cells [7] = conditions: 5 μM, DHT 1 nM, charcoal stripped FBS, 6 days
Protocol: The medium and drug were refreshed every two days.
The anti-PCa potential of 2-63 was further characterized by assessing its inhibitory effects on DHT-stimulated C4-2 cell growth. […] C4-2 cells were cultured in charcoal-stripped, steroid-free medium and cells were stimulated with androgen.

[8] = tested on: AR, AR-V7, c-Myc, HO-1, Hsp70; assay: Western blotting under BSO combination, VCaP cells; type: cell-based
Protocol: (§2) It was first investigated if iron chelators or antioxidants could rescue the viability of drug combination-treated cells. […] HO-1 catalyzes the decomposition of heme into carbon monoxide, biliverdin, and Fe^2+. […] Both Fer-1 and the lipophilic antioxidant α-Toc can effectively scavenge radicals in phosphatidylcholine lipid bilayers and break the redox cycle that generates lipid hydroperoxide.
(§3) Western Blotting. […] Proteins in cell lysates (40 μg) were separated using electrophoresis on SDS-PAGE and transferred onto PVDF (polyvinylidenedifluoride) membranes. Membranes were blocked in 5% fat-free milk followed by incubation with primary antibodies overnight at 4° C., and the secondary horseradish peroxidase-conjugated anti-rabbit or anti-mouse antibodies. The blots were developed in the Enhanced Chemiluminescence mixture and detected by ImageQuant™ LAS 4000 imaging system (GE). Density of protein bonds were calculated and analyzed by using imageJ software downloaded from the National Institute of Health website.

VCaP cells [9] = assay: Ferroptosis rescue/enhancement of 2-63 plus BSO, MTT, VCaP cells; type: cell-based; conditions: for rescue of 2-63 plus BSO-caused viability loss, VCaP cells: BSO 100 μM 16 h, 2-63 2.5 μM 24 h, DFO 100 μM, α-Toc 100 μM, Fer-1 0.5 μM, ZnPP 3 μM
Description: as §2

22Rv1 cells [10] = assay: Ferroptosis rescue of 2-63 plus BSO, MTT, 22Rv1 cells; type: cell-based; conditions: BSO 100 μM 16 h, 2-63 5 μM 24 h; DFO 100 μM, α-Toc 100 μM, Fer-1 0.5 μM, ZnPP 3 μM
Description: as §2

22Rv1 cells [11] = assay: MTT viability assay, 22Rv1 cells; type: cell-based; conditions: 5 μM, 72 h
Description: as §1

C4-2 cells [12] = assay: MTT viability assay, C4-2 cells; type: cell-based; conditions: 5 μM, 72 h
Description: as §1

[13] = tested on: acetylation of α-tubulin and histone H3 (markers for HDAC6 and nuclear HDAC inhibition); assay: Western blotting of acetylation markers in VCaP cells; type: cell-based; conditions: 16 h, 2-63 and 12b 5 and 15 μM, SAHA 1 μM; for α-tubulin acetylation: SFN 15 μM
Protocol: as §3

Hsp90, Hsp70, HO-1 = assay: Western blotting of Hsp90, Hsp70 and HO-1 in VCaP cells; type: cell-based; conditions: 16 h, 5 and 15 μM
Protocol: as §3

CN(C)C/C=C/C(=O)Nc1ccc(N2C(=S)N(c3ccc(C#N)c(C(F)(F)F)c3)C(=O)C2(C)C)cc1F [3-79, (E)-N-(4-(3-(4-cyano-3-(trifluoromethyl)phenyl)-5,5-dimethyl-4-oxo-2-thioxoimidazolidin-1-yl)-2-fluorophenyl)-4-(dimethylamino)but-2-enamide]
potency of 3-79 in viability suppression with BSO (VCaP cells [1]; VCaP, 3-79 10 μM plus BSO 100 μM): increased under GSH deficient conditions

CC1(C)C(=O)N(c2ccc(C#N)c(C(F)(F)F)c2)C(=S)N1c1ccc(CCCCCCO)nc1 [10b, 4-(3-(6-(6-Hydroxyhexyl)pyridin-3-yl)-4,4-dimethyl-5-oxo-2-thioxoimidazolidin-1-yl)-2-(trifluoromethyl) benzonitrile]
suppression of DHT-stimulated luciferase activity [2]: decreased luciferase activity in a dose-dependent manner
AR inhibition at higher concentrations relative to comparators [2]: Enz-comparable
inhibition at 1 µM [2]: 60%

CC1(C)C(=O)N(c2ccc(C#N)c(C(F)(F)F)c2)C(=S)N1c1ccc(CCCCCCN=[N+]=[N-])nc1 [11b, 4-(3-(6-(6-Azidohexyl)pyridin-3-yl)-4,4-dimethyl-5-oxo-2-thioxoimidazolidin-1-yl)-2-(trifluoromethyl) benzonitrile]
potentiation by BSO compared to 2-63, C4-2 cells (C4-2 cells [3]): more limited
potentiation by BSO compared to 2-63, 22Rv1 cells (22Rv1 cells [4]): more limited
potentiation by BSO compared to 2-63, VCaP cells (VCaP cells [5]): more limited
suppression of DHT-stimulated luciferase activity [2]: decreased luciferase activity in a dose-dependent manner
AR inhibition at higher concentrations relative to comparators [2]: Enz-comparable
inhibition at 1 µM [2]: 60%

CC1(C)C(=O)N(c2ccc(C#N)c(C(F)(F)F)c2)C(=S)N1c1ccc(CCCCN=C=S)nc1 [12a, 4-(3-(6-(4-Isothiocyanatobutyl)pyridin-3-yl)-4,4-dimethyl-5-oxo-2-thioxoimidazolidin-1-yl)-2-(trifluoromethyl) benzonitrile]
IC50 (VCaP cells [6]; Homo sapiens, VCaP): 4.85 µM

C[C@]12CCC(=O)C[C@@H]1CC[C@@H]1[C@@H]2CC[C@]2(C)[C@@H](O)CC[C@@H]12 [DHT, 5α-dihydrotestosterone, reference compound]
increase of luciferase activity ([2]; 24 h): 8.6 fold

CNC(=O)c1ccc(N2C(=S)N(c3ccc(C#N)c(C(F)(F)F)c3)C(=O)C2(C)C)cc1F [Enz, 4-(3-(4-cyano-3-(trifluoromethyl)phenyl)-5,5-dimethyl-4-oxo-2-thioxoimidazolidin-1-yl)-2-fluoro-N-methyl benzamide, reference compound]
viability reduction of DHT-stimulated C4-2 cells (C4-2 cells [7]): 25%
expression of examined cellular markers (AR, c-Myc, HO-1) ([8]; VCaP, Enz 10 μM, with or without BSO 100 μM, except upregulating AR-V7): did not affect

CCOC(=O)c1ccc(NC2CCCCC2)c(N)c1 [Fer-1, ferrostatin-1]
rescue of 2-63 plus BSO-caused viability loss, VCaP cells (VCaP cells [9]): rescued
rescue of 2-63 plus BSO-caused viability loss, 22Rv1 cells (22Rv1 cells [10]): rescued
rescue of AR/AR-V7 under 2-63 plus BSO, VCaP cells ([8]; DFO 100 μM, Fer-1 1 μM, BSO 100 μM, 2-63 2.5 μM, 24 h): failed to rescue AR/AR-V7
rescue of 3-79 plus BSO-induced viability loss, VCaP cells (VCaP cells [1]): rescued

CC(=O)NC(CSC(=S)NCCc1ccccc1)C(=O)O (stereo not shown) [PEITC-NAC, reference compound]
potentiation by BSO compared to 2-63, C4-2 cells (C4-2 cells [3]): more limited
potentiation by BSO compared to 2-63, 22Rv1 cells (22Rv1 cells [4]): more limited
relative potency in viability reduction, 22Rv1 cells (22Rv1 cells [11]): 12b>2-63>PEITC-NAC
potentiation by BSO compared to 2-63, VCaP cells (VCaP cells [5]): more limited
IC50 (VCaP cells [6]): 10.1 µM
relative potency in viability reduction, C4-2 cells (C4-2 cells [12]): 12b>2-63>PEITC-NAC

O=C(CCCCCCC(=O)Nc1ccccc1)NO [SAHA, suberoylanilide hydroxamic acid, reference compound]
histone H3 acetylation [13]: induced notable global acetylation
α-tubulin acetylation [13]: induced notable global acetylation

C[S+]([O-])CCCCN=C=S (stereo not shown) [SFN, sulforaphane, reference compound]
α-tubulin acetylation [13]: upregulated
HO-1 protein level (Hsp90, Hsp70, HO-1): dose-dependently upregulated
Hsp70 protein level (Hsp90, Hsp70, HO-1): significantly induced
Hsp90 protein level (Hsp90, Hsp70, HO-1): did not change

C=CC1=C(C)c2cc3[n-]c(cc4[n-]c(cc5nc(cc1n2)C(C)=C5C=C)c(C)c4CCC(=O)O)c(CCC(=O)O)c3C.[Zn+2] [ZnPP, Zinc(II) protoporphyrin IX]
rescue of 2-63 plus BSO-caused viability loss, VCaP cells (VCaP cells [9]): notable cytoprotective effects
rescue of 2-63 plus BSO-caused viability loss, 22Rv1 cells (22Rv1 cells [10]): notable cytoprotective effects

Cc1c(C)c2c(c(C)c1O)CC[C@@](C)(CCC[C@H](C)CCC[C@H](C)CCCC(C)C)O2 [α-Toc, α-tocopherol]
rescue of 2-63 plus BSO-caused viability loss, VCaP cells (VCaP cells [9]): rescued
rescue of 2-63 plus BSO-caused viability loss, 22Rv1 cells (22Rv1 cells [10]): rescued
rescue of 3-79 plus BSO-induced viability loss, VCaP cells (VCaP cells [1]): rescued

ferric ammonium citrate
effect of exogenous iron on BSO plus 2-63 combination, C4-2 cells (C4-2 cells [3]; ferric iron 25 μM, BSO 100 μM, 2-63 0.6-5 μM): significantly enhanced the suppressive effects
effect of exogenous iron on BSO plus 2-63 combination, VCaP cells (VCaP cells [9]; ferric ammonium citrate 25 μM, BSO 100 μM, 2-63 1 μM): exacerbated the lethal effect
